Experimental data taken from patent publication US10000454B2, “Antidiabetic tricyclic compounds” (Merck Sharp & Dohme Corp., priority 2014, dated 2018).

Key:
Human GPR40 [1] = target: T1, Human GPR40 (Homo sapiens, UniProt O14842); assay: FLIPR assay, agonist-induced calcium mobilization; assay type: cell-based; design: expressed in transfected cells; settings: GPR40/CHO NFAT BLA cells
Procedure: (§1) Human and mouse GPR40 stable cell-lines were generated in CHO cells stably expressing NFAT BLA (Beta-lactamase). A human GPR40 stable cell-line was generated in HER cells stably expressing the aequorin expressing reporter. The expression plasmids were transfected using lipofectamine (Life Technologies) following manufacturer's instructions. Stable cell-lines were generated following drug selection.
FLIPR (Fluorimetric Imaging Plate Reader, Molecular Devices) assays were performed to measure agonist-induced calcium mobilization of the stable clones. For the FLIPR assay, one day before assay, GPR40/CHO NFAT BLA cells were seeded into black-wall-clear-bottom 384-well plates (Costar) at 1.4×10e4 cells/20 μL medium/well. The cells were incubated with 20 μl/well of the assay buffer (HMS, 0.1% BSA, 20 mM HEPES, 2.5 mM probenecid, pH 7.4) containing 8 μM fluo-4, AM, 0.08% pluronic acid at room temperature for 100 minutes. Fluorescence output was measured using FLIPR. Compounds were dissolved in DMSO and diluted to desired concentrations with assay buffer. 13.3 μL/well of compound solution was added.

Human GPR40 [2] = target: T1, Human GPR40; assay: Inositol Phosphate Turnover (IP1) Assay; assay type: cell-based; design: expressed in transfected cells; host or cells: HEK cells (stably expressing the aequorin reporter); settings: HEK cells stably expressing human GPR40, CisBio IP-One kit
Procedure: as §1
The assay is performed in 384-well format. HEK cells stably expressing human GPR40 are plated at 15,000 cells per well in growth medium (DMEM/10% fetal calf serum). Cell plates are then incubated 16 hours at 37 degrees in a 5% CO2 incubator.
Measurement of Inositol Phosphate Turnover (IP1) is performed using the CisBio IP-One kit (Part number 62IPAPEB). After the 16 hour incubation, the cells are washed with HEPES buffer and 10 ul of stimulation buffer (prepared as described in the kit) is added to each well. In a separate plate, compounds are diluted in DMSO (400-fold over the final concentration in the assay well) and 25 nl is acoustically transferred to the appropriate well in the assay cell plate. The plates are then incubated for 60 minutes at 37 degrees. 10 ul of detection buffer (also prepared as described in the IP-One kit) is added to each well and the plates are incubated for 60 minutes in the dark. The plates are then read in a Perkin Elmer EnVision or equivalent reader able to measure FRET. Fluorescent ratio of emission at 665 and 620 nm is then converted to IP1 concentration by back calculating from an IP1 standard curve prepared at the time of the assay.

T1 sequence (O14842 whole entry): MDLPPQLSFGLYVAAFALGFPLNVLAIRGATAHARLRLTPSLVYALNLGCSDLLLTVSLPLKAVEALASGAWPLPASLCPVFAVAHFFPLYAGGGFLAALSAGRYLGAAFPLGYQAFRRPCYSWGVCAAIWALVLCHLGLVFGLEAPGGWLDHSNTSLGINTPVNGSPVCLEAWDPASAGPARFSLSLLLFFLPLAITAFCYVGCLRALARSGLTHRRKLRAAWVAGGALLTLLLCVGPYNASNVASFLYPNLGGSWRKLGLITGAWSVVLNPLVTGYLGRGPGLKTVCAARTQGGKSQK

Structure (SMILES) | EC50 (Human GPR40 [1]) [nM] | EC50 (Human GPR40 [2]) [nM]
O=C(O)[C@H]1[C@@H]2Cc3cc(OCc4ccc5c(c4)C(c4ccccc4C(F)(F)F)OCC5)ncc3[C@@H]21 (stereo partly drawn) [Example 50, (5aR,6S,6aS)-3-((1-(2-(trifluoromethyl)phenyl)isochroman-7-yl)methoxy)-5,5a,6,6a-tetrahydrocyclopropa[4,5]cyclopenta[1,2-c]pyridine-6-carboxylic acid] | 43.2 | 15
CC1(C)OCC2(CO1)CC(c1ccccc1C(F)(F)F)c1cc(COc3cc4c(cn3)[C@H]3[C@@H](C4)[C@@H]3C(=O)O)ccc12 (stereo partly drawn) [Example 8, (5aR,6S,6aS)-3-((2,2-dimethyl-3′-(2-(trifluoromethyl)phenyl)-2′,3′-dihydrospiro[[1,3]dioxane-5,1′-inden]-5′-yl)methoxy)-5,5a,6,6a-tetrahydrocyclopropa[4,5]cyclopenta[1,2-c]pyridine-6-carboxylic acid] | 12.3 | 21.1
O=C(O)[C@H]1[C@@H]2Cc3cc(OCc4ccc5c(c4)C(O)(c4ccccc4C(F)(F)F)CC5)ccc3[C@@H]21 (stereo partly drawn) [Example 21, (1S,1aS,6aR)-4-((3-hydroxy-3-(2-(trifluoromethyl)phenyl)-2,3-dihydro-1H-inden-5-yl)methoxy)-1,1a,6,6a-tetrahydrocyclopropa[a]indene-1-carboxylic acid] | 17.7 | 16.6
Cn1cnc2c([C@H]3CC(C)(C)c4ccc(COc5cc6c(cn5)[C@H]5[C@@H](C6)[C@@H]5C(=O)O)cc43)cccc21 [Example 71] | 13.3 | 205
O=C(O)[C@H]1[C@@H]2Cc3cc(OCc4ccc5c(c4)C(c4ccccc4C(F)(F)F)CCC5)ncc3[C@@H]21 (single isomer, unassigned) [Example 42] | 17.6 | 9.87
CC1(C)C=C(c2ccccc2C(F)(F)F)c2cc(COc3cc4c(cn3)[C@H]3[C@@H](C4)[C@@H]3C(=O)O)ccc21 [Example 4] | 13.7 | 18
O=C(O)[C@H]1[C@@H]2Cc3cc(OCc4ccc5c(c4)N(c4ccccc4)CCCC5)ncc3[C@@H]21 [Example 62, (5aR,6S,6aS)-3-((1-phenyl-2,3,4,5-tetrahydro-1H-benzo[b]azepin-8-yl)methoxy)-5,5a,6,6a-tetrahydrocyclopropa[4,5]cyclopenta[1,2-c]pyridine-6-carboxylic acid] | 14.6 | 42.9
Cn1cnc2cccc(C3CC(C)(C)c4ccc(COc5cc6c(cn5)[C@H]5[C@@H](C6)[C@@H]5C(=O)O)cc43)c21 (stereo partly drawn) [Example 16, (5aR,6S,6aS)-3-((1,1-dimethyl-3-(1-methyl-1H-benzo[d]imidazol-7-yl)-2,3-dihydro-1H-inden-5-yl)methoxy)-5,5a,6,6a-tetrahydrocyclopropa[4,5] cyclopenta[1,2-c]pyridine-6-carboxylic acid] | 7.29 | 27.7
O=C(O)[C@H]1[C@@H]2Cc3cc(OCc4ccc5c(C6CC6)cn(-c6ccccc6C(F)(F)F)c5c4)ncc3[C@@H]21 [Example 37, (5aR,6S,6aS)-3-({3-cyclopropyl-1-[2-(trifluoromethyl)phenyl]-1H-indol-6-yl}methoxy)-5,5a,6,6a-tetrahydrocyclopropa[4,5] cyclopenta[1,2-c]pyridine-6-carboxylic acid] | 42.5 | 91.5
O=C(O)[C@H]1[C@@H]2Cc3cc(OCc4ccc5c(c4)C(c4ccccc4C(F)(F)F)CC54COC4)ncc3[C@@H]21 (stereo partly drawn) [Example 7, (5aR,6S,6aS)-3-((3-(2-(trifluoromethyl)phenyl)-2,3-dihydrospiro[indene-1,3′-oxetan]-5-yl)methoxy)-5,5a,6,6a-tetrahydrocyclopropa[4,5]cyclopenta[1,2-c]pyridine-6-carboxylic acid] | 32.9 | 35.3
O=C(O)[C@H]1[C@@H]2Cc3cc(OCc4ccc5c(c4)N(c4ccccc4)CC5)ncc3[C@@H]21 [Example 35, (5aR,6S,6aS)-3-((1-(2-phenyl)indolin-6-yl)methoxy)-5,5a,6,6a-tetrahydrocyclopropa[4,5] cyclopenta[1,2-c]pyridine-6-carboxylicacid] | 53.4 | 168
O=C(O)[C@H]1[C@@H]2Cc3cc(OCc4cc5c(cc4F)C(F)(F)CC5c4ccccc4C(F)(F)F)ncc3[C@@H]21 (single isomer, unassigned) [Example 69] | 1.51 | 8.85
O=C(O)[C@H]1[C@@H]2Cc3cc(OCc4ccc5ccn(-c6ccccc6C(F)(F)F)c5c4)ncc3[C@@H]21 [Example 34, (5aR,6S,6aS)-3-((1-(2-(trifluoromethyl)phenyl)-1H-indol-6-yl)methoxy)-5,5a,6,6a-tetrahydrocyclo-propa[4,5]cyclopenta[1,2-c]pyridine-6-carboxylic acid] | 33.9 | 23.2
COc1ncccc1C1CC(C)(C)c2ccc(COc3cc4c(cn3)[C@H]3[C@@H](C4)[C@@H]3C(=O)O)cc21 (stereo partly drawn) [Example 14, (5aR,6S,6aS)-3-((3-(2-methoxypyridin-3-yl)-1,1-dimethyl-2,3-dihydro-1H-inden-5-yl)methoxy)-5,5a,6,6a-tetrahydro-cyclopropa[4,5]cyclopenta [1,2-c]pyridine-6-carboxylic acid] | 11.6 | 21.8
Cc1ccccc1N1CCCc2ccc(COc3ccc4c(c3)C[C@H]3[C@H](C(=O)O)[C@@H]43)cc21 [Example 68, (1S,1aS,6aR)-4-((1-(o-tolyl)-1,2,3,4-tetrahydroquinolin-7-yl)methoxy)-1,1a,6,6a-tetrahydrocyclopropa[a] indene-1-carboxylic acid] | 24.7 | 64.9
CC1(C)CC(c2ccccc2S(C)(=O)=O)c2cc(COc3cc4c(cn3)[C@H]3[C@@H](C4)[C@@H]3C(=O)O)ccc21 (stereo partly drawn) [Example 13, (5aR,6S,6aS)-3-((1,1-dimethyl-3-(2-(methyl-sulfonyl)phenyl)-2,3-dihydro-1H-inden-5-yl)methoxy)-5,5a,6,6a-tetrahydrocyclopropa[4,5] cyclopenta[1,2-c]pyridine-6-carboxylic acid] | 22.6 | 40.6
CC1(C)CC(c2ccccc2F)c2cc(COc3cc4c(cn3)[C@H]3[C@@H](C4)[C@@H]3C(=O)O)ccc21 (stereo partly drawn) [Example 17, (5aR,6S,6aS)-3-((1,1-dimethyl-3-(2-fluorophenyl)-2,3-dihydro-1H-inden-5-yl)methoxy)-5,5a,6,6a-tetrahydrocyclopropa[4,5] cyclopenta[1,2-c]pyridine-6-carboxylic acid] | 21.7 | 43.7
CC1(c2ccccc2C(F)(F)F)OCc2ccc(COc3cc4c(cn3)[C@H]3[C@@H](C4)[C@@H]3C(=O)O)cc21 (some centres unmarked) [Example 40] | 16.7 | 431
O=C(O)[C@H]1[C@@H]2Cc3cc(OCc4ccc5c(c4)C(c4ccccc4C(F)(F)F)CC5c4ccccc4)ncc3[C@@H]21 (stereo partly drawn) [Example 19, (5aR,6S,6aS)-3-((1-phenyl-3-(2-(trifluoromethyl)phenyl)-2,3-dihydro-1H-inden-5-yl)methoxy)-5,5a,6,6a-tetrahydrocyclopropa[4,5]cyclopenta[1,2-c]pyridine-6-carboxylic acid] | 15.5 | 17.5
CC1CC(c2ccccc2C(F)(F)F)c2cc(COc3cc4c(cn3)[C@H]3[C@@H](C4)[C@@H]3C(=O)O)ccc21 (stereo partly drawn) [Example 5, (5aR,6S,6aS)-3-((1-methyl-3-(2-(trifluoromethyl)phenyl)-2,3-dihydro-1H-inden-5-yl)methoxy)-5,5a,6,6a-tetrahydrocyclopropa[4,5]cyclopenta[1,2-c]pyridine-6-carboxylic acid] | 20.8 | 21.6
CC1(C)CC(=O)N(c2ccccc2C(F)(F)F)c2cc(COc3cc4c(cn3)[C@H]3[C@@H](C4)[C@@H]3C(=O)O)c(F)cc21 [Example 54, (5aR,6S,6aS)-3-((6-fluoro-4,4-dimethyl-2-oxo-1-(2-(trifluoromethyl)phenyl)-1,2,3,4-tetrahydroquinolin-7-yl)methoxy)-5,5a,6,6a-tetrahydrocyclopropa[4,5] cyclopenta[1,2-c]pyridine-6-carboxylic acid] | 44.9 | 562
CC1(C)CC(c2ccncc2C(F)(F)F)c2cc(COc3cc4c(cn3)[C@H]3[C@@H](C4)[C@@H]3C(=O)O)c(F)cc21 (some centres unmarked) [Example 25] | 6.92 | 6.91
